For one assay, the target named is human O-GlcNAcase (Homo sapiens (Human), UniProt O60502). The experiment in a line: Assay for determination of Ki values for inhibition of O-GlcNAcase activity (fluorescence-based hOGA). To be noted: purified human O-GlcNAcase 0.7 nM, 4-Methylumbelliferyl N-acetyl-β-D-glucosaminide substrate, pH 7.0, Cheng-Prusoff. It counts as biochemical. On the procedure: Experimental Procedure for Kinetic Analyses: Enzymatic reactions were carried out in a reaction containing 50 mM NaH2PO4, 100 mM NaCl and 0.1% BSA (pH 7.0) using 2 mM 4-Methylumbelliferyl N-acetyl-β-D-glucosaminide dihydrate (Sigma M2133) dissolved in ddH2O, as a substrate. The amount of purified human O-GlcNAcase enzyme used in the reaction was 0.7 nM. Test compound of varying concentrations was added to the enzyme prior to initiation of the reaction. The reaction was performed at room temperature in a 96-well plate and was initiated with the addition of substrate. The production of fluorescent product was measured every 60 sec for 45 min with a Tecan Infinite M200 plate-reader with excitation at 355 nm and emission detected at […], with 4-Methylumbelliferone (Sigma M1381) used to produce a standard curve. The slope of product production was determined for each concentration of compound tested and plotted, using standard curve fitting algorithms for sigmoidal dose response curves. The values for a four parameter logistic curve fit of the data were determined.
human O-GlcNAcase, sequence (O60502 whole entry): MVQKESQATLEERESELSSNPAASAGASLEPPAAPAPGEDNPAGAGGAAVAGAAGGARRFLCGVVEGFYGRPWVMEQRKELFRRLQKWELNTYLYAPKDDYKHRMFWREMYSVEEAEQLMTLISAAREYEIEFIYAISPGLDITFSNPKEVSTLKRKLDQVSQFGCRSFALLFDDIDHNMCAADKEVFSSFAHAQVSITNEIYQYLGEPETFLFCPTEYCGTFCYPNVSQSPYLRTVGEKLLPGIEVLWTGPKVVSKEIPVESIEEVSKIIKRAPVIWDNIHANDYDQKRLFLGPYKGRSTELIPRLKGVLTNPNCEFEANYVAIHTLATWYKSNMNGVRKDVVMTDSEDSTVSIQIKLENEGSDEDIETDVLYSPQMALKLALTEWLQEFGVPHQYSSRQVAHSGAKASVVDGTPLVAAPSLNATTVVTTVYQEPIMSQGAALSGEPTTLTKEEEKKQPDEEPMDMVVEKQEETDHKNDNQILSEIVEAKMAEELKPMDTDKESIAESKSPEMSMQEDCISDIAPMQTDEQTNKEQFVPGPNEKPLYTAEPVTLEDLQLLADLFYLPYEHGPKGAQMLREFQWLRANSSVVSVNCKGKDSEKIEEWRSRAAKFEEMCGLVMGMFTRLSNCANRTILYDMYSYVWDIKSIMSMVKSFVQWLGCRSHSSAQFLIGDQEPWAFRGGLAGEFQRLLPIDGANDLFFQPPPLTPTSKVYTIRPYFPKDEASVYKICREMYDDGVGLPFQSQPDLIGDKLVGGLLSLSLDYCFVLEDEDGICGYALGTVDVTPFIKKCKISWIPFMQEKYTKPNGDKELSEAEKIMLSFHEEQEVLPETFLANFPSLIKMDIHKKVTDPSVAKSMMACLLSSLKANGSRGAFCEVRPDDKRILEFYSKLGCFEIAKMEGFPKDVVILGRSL
K1 values were determined using the Cheng-Prusoff equation; the Km of O-GlcNAcase for substrate was 0.2 mM.

The next assay deals with O-GlcNAcase (Rattus norvegicus (Rat), UniProt Q8VIJ5). The experiment in a line: Cell-based ELISA of O-GlcNAcylated protein (RL-2 antibody) in PC-12 cells. As to conditions: rat PC-12 cells, 24 h treatment, O-GlcNAcylated protein detected with RL-2 antibody. An excerpt:
Inhibition of O-GlcNAcase, which removes O-GlcNAc from cellular proteins, results in an increase in the level of O-GlcNAcylated protein in cells. An increase in O-GlcNAcylated protein can be measured by an antibody, such as RL-2, that binds to O-GlcNAcylated protein. The amount of O-GlcNAcylated protein:RL2 antibody interaction can be measured by enzyme linked immunosorbant assay (ELISA) procedures.
A variety of tissue culture cell lines, expressing endogenous levels of O-GlcNAcase, can be utilized; examples include rat PC-12, and human U-87, or SK-N-SH cells. In this assay, rat PC-12 cells were plated in 96-well plates with approximately 10,000 cells/well. […] If desired, the total protein concentration of samples was determined using 20 μl of the sample using the BCA method.
The ELISA portion of the assay was performed in a black Maxisorp 96-well plate that was coated overnight at 4° C. with 100 μL/well of the cell lysate (1:10 dilution of the lysate with PBS containing protease inhibitors, phosphatase inhibitors, and PMSF). […] The detection reaction was incubated for 15 minutes at room temperature and then read with excitation at 530 nm and emission at 590 nm.
The amount of O-GlcNAcylated protein, as detected by the ELISA assay, was plotted for each concentration of test compound using standard curve fitting algorithms for sigmoidal dose response curves. […]
For orientation: ELISA stands for enzyme-linked immunosorbent assay.

O-GlcNAcase, sequence (Q8VIJ5 whole entry): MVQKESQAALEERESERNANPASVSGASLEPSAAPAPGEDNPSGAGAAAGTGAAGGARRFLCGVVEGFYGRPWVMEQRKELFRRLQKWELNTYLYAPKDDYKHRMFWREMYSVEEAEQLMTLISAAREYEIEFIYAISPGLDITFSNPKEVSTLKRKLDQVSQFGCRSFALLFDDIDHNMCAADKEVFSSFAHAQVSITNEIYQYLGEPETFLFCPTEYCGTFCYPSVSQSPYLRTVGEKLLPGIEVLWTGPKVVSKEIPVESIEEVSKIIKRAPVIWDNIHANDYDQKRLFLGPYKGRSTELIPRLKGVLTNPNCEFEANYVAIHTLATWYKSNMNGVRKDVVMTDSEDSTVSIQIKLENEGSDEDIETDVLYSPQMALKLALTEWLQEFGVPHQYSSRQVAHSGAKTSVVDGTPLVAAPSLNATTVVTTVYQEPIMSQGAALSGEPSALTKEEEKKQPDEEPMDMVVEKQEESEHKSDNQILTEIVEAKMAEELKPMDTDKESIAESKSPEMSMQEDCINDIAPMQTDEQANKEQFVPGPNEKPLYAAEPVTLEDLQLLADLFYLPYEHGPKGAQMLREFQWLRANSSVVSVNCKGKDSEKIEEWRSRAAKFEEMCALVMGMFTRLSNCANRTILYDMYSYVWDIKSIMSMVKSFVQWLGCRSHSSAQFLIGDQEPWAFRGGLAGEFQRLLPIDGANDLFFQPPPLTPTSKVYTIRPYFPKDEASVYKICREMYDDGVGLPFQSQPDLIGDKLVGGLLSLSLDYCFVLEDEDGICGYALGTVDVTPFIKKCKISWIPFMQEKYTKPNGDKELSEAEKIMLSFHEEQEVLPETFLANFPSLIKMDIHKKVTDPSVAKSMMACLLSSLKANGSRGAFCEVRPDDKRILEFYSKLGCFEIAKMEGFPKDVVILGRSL

Regarding `OC[C@H]1O[C@@H]2SC(NCCCF)=N[C@@H]2[C@@H](O)[C@@H]1O` [Example 2, (3aR,5R,6S,7R,7aR)-2-((3-fluoropropyl)amino)-5-(hydroxymethyl)-5,6,7,7a-tetrahydro-3aH-pyrano[3,2-d]thiazole-6,7-diol], the Ki (as a rule, the dissociation constant of the complex between target and ligand, obtained from inhibition or displacement) at human O-GlcNAcase was determined as 0.015 µM.

In turn, `OC[C@H]1O[C@@H]2SC(NCCC3CC3)=N[C@@H]2[C@@H](O)[C@@H]1O` [Example 3, (3aR,5R,6S,7R,7aR)-2-(2-Cyclopropylethylamino)-5-(hydroxymethyl)-5,6,7,7a-tetrahydro-3aH-pyrano[3,2-d]thiazole-6,7-diol] registered a Ki at human O-GlcNAcase of 0.0044 µM.

On human O-GlcNAcase, `OC[C@H]1O[C@@H]2SC(NCC3CC3)=N[C@@H]2[C@@H](O)[C@@H]1O` [Example 11, (3aR,5R,6S,7R,7aR)-2-((cyclopropylmethyl)amino)-5-(hydroxymethyl)-5,6,7,7a-tetrahydro-3aH-pyrano[3,2-d]thiazole-6,7-diol] gave a Ki of 0.015 µM. Compared with the last compound, the Ki is about 3.4-fold higher.

Turning to `CCCN(C)C1=N[C@@H]2[C@@H](O)[C@H](O)[C@@H](CO)O[C@@H]2S1` [Example 15, (3aR,5R,6S,7R,7aR)-5-(hydroxymethyl)-2-(methyl(propyl)amino)-5,6,7,7a-tetrahydro-3aH-pyrano[3,2-d]thiazole-6,7-diol], on human O-GlcNAcase, the affinity corresponds to a Ki of 0.015 µM. In addition, at O-GlcNAcase, the EC50 (as a rule, the concentration giving half of the maximal effect) was 0.196 µM.

In the case of `C=CCN(C)C1=N[C@@H]2[C@@H](O)[C@H](O)[C@@H](CO)O[C@@H]2S1` [Example 16, (3aR,5R,6S,7R,7aR)-2-(allyl(methyl)amino)-5-(hydroxymethyl)-5,6,7,7a-tetrahydro-3aH-pyrano[3,2-d]thiazole-6,7-diol], the inhibition constant Ki on human O-GlcNAcase came to 0.0028 µM. Also, a half-maximal effect at O-GlcNAcase (EC50) was put at 0.152 µM.

Compound `CON(C)C1=N[C@@H]2[C@@H](O)[C@H](O)[C@@H](CO)O[C@@H]2S1` [Example 18, (3aR,5R,6S,7R,7aR)-5-(hydroxymethyl)-2-(methoxy(methyl)amino)-5,6,7,7a-tetrahydro-3aH-pyrano[3,2-d]thiazole-6,7-diol] came in with an inhibition constant Ki on human O-GlcNAcase of 0.011 µM.

On human O-GlcNAcase, `CCC(=O)NC1=N[C@@H]2[C@@H](O)[C@H](O)[C@@H](CO)O[C@@H]2S1` [Example 22, N-((3aR,5R,6S,7R,7aR)-6,7-dihydroxy-5-(hydroxymethyl)-5,6,7,7a-tetrahydro-3aH-pyrano[3,2-d]thiazol-2-yl)propionamide] yielded a Ki of 0.074 µM.

Regarding `CCNC(=O)NC1=N[C@@H]2[C@@H](O)[C@H](O)[C@@H](CO)O[C@@H]2S1` [Example 29, 1-((3aR,5R,6S,7R,7aR)-6,7-dihydroxy-5-(hydroxymethyl)-5,6,7,7a-tetrahydro-3aH-pyrano[3,2-d]thiazol-2-yl)-3-ethylurea], at human O-GlcNAcase, the Ki stood at 0.022 µM.

Source of the values: patent publication US8927507B2, “Selective glycosidase inhibitors and uses thereof” (priority 2011, dated 2015).
